# Tests used:
# HiBit-BRM fusion protein = biological target: T1, HiBit-BRM fusion protein (Homo sapiens, UniProt P51531); assay: HiBiT-BRM cell-based degradation assay (Nano-Glo HiBiT Lytic Detection, 24 h); details: HeLa cells expressing HiBiT-BRM; for DC50: read-out: BRM HiBit Degradation IC50; for BRM HiBit Degradation Maximum measured: top dose 30 μM
# T1 construct: expressed in transfected cells
# Summary of the method: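 Percent BRM loss was derived from HiBiT luminescence relative to DMSO-treated cells and cells given 2 μM of a known BRM/BRG1 degrader. Treatment lasted 24 h in HiBiT-BRM HeLa cells, with a top final concentration of 30 μM.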
# [1] = biological target: T2, HiBit-BRG1 fusion protein (Homo sapiens, UniProt P51532); assay: HiBiT-BRG1 cell-based degradation assay (Nano-Glo HiBiT Lytic Detection, 24 h); details: HeLa cells expressing HiBit-BRG1 and LgBit; for DC50: read-out: BRG1 HiBit Degradation IC50; for Dmax: HeLa, top dose 30 μM, read-out: BRG1 HiBit Degradation Maximum measured
# T2 construct: expressed in transfected cells
# Summary of the method: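 Degradation is scaled from DMSO-treated cells (0%) to cells given 2 μM of a known BRM/BRG1 degrader (100%). HeLa cells stably carrying HiBiT-BRG1 plus LgBiT (5000/well) were lysed with Nano-Glo HiBiT detection reagent, shaken 10 min at RT, and luminescence read.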
# T2 sequence (P51532 whole entry, the tested form may be a part): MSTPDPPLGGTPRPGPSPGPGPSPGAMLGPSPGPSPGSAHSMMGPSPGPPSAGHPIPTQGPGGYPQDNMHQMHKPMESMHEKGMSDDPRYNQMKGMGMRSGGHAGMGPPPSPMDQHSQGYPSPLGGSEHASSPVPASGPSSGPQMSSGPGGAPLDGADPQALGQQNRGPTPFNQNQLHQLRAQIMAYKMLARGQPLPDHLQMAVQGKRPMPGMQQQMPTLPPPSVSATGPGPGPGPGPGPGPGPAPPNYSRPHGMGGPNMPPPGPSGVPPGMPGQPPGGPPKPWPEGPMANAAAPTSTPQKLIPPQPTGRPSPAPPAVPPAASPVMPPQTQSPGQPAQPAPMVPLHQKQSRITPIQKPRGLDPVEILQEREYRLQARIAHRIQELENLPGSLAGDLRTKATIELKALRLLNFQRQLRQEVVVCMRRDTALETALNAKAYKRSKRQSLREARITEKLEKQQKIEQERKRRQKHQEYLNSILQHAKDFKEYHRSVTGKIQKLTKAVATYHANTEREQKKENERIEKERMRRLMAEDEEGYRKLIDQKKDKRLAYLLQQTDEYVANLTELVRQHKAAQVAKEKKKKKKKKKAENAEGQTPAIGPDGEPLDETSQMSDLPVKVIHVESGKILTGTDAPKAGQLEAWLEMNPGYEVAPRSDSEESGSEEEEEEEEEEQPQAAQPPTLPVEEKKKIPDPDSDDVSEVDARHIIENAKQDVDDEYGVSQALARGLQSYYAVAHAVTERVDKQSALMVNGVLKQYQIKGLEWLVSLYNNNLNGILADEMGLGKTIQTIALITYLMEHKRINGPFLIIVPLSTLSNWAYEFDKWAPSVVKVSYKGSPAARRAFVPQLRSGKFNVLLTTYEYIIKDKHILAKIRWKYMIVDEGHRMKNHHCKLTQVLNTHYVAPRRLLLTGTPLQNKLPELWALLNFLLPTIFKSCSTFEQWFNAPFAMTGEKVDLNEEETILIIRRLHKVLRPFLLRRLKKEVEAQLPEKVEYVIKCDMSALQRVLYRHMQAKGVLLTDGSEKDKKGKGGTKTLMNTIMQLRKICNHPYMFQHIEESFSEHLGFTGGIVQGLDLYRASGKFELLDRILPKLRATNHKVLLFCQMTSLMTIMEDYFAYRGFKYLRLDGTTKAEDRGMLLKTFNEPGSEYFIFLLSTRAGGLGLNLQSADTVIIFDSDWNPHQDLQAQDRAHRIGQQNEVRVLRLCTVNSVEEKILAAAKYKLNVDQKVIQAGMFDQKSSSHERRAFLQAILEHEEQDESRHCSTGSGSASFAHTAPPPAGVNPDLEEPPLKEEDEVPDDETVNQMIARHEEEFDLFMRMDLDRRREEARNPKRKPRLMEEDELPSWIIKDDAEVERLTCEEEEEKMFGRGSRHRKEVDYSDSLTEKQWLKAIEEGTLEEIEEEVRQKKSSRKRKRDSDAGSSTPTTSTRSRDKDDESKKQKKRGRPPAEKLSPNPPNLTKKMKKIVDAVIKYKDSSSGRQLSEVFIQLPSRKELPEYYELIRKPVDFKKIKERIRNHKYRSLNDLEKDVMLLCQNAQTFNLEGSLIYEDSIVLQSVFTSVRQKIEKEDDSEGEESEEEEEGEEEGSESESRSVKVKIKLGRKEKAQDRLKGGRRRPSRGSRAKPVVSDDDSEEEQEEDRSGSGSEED
# T1 sequence (P51531 whole entry, the tested form may be a part): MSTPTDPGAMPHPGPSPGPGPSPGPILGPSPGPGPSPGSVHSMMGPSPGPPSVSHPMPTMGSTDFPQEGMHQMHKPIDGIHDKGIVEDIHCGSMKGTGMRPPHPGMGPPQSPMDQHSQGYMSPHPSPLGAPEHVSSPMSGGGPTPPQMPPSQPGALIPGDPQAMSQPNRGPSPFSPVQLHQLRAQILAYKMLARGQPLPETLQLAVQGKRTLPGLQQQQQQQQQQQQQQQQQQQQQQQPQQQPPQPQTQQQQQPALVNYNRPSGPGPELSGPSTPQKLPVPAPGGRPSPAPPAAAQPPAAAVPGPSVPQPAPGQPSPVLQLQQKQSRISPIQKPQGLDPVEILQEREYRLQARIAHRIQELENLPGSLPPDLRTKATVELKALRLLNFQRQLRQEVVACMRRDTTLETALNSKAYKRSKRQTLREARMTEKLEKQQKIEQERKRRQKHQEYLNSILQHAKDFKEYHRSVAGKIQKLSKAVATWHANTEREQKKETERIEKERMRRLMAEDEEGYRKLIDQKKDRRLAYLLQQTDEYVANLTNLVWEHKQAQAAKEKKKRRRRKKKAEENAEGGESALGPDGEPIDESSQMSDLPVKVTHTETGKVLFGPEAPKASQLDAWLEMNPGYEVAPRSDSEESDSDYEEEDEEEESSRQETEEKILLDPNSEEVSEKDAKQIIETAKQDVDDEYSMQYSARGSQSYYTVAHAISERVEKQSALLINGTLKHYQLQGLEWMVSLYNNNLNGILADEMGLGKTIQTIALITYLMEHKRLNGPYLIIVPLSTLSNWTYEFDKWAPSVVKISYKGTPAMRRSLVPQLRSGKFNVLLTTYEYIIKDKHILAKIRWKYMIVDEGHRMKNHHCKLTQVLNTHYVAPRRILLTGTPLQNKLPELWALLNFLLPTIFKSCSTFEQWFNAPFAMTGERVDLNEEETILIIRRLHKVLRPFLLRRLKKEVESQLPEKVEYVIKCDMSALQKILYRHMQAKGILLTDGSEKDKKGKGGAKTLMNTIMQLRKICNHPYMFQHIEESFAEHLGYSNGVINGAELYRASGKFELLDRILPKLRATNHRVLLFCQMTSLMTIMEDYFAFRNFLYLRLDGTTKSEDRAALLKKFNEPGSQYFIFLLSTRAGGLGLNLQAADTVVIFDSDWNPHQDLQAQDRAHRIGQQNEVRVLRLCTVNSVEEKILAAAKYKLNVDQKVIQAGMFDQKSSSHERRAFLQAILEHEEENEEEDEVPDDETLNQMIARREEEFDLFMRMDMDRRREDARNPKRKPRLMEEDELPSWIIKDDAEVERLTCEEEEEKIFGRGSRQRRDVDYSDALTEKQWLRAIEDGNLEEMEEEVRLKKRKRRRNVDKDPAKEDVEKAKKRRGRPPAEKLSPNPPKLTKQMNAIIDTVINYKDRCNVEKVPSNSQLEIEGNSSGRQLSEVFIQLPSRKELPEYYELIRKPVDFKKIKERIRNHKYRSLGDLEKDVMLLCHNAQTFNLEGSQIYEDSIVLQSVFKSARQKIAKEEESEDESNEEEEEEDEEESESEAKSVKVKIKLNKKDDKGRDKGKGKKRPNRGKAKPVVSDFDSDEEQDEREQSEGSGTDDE
DC50 (HiBit-BRM fusion protein) [µM],BRM HiBit Degradation Maximum measured (HiBit-BRM fusion protein),DC50 [1] [µM],Dmax [1] [%],Structure (SMILES)
> 10,C (‘C’ = Maximum degradation <50%),> 10,< 50,"Cc1ncsc1-c1ccc(CNC(=O)[C@@H]2C[C@@H](O)CN2C(=O)[C@@H](NC(=O)CCCC(=O)NCc2cccc(-c3cccc(-c4csc(NC(=O)CNC(=O)c5ccn(S(C)(=O)=O)c5)n4)c3)c2)C(C)(C)C)cc1 [Compound 56, N′-[(1S)-1-[(2S,4R)-4-hydroxy-2-[[4-(4-methylthiazol-5-yl)phenyl]methylcarbamoyl]pyrrolidine-1-carbonyl]-2,2-dimethyl-propyl]-N-[[3-[3-[2-[[2-[(1-methylsulfonylpyrrole-3-carbonyl)amino]acetyl]amino]thiazol-4-yl]phenyl]phenyl]methyl]pentanediamide]"
> 10,C (‘C’ = Maximum degradation <50%),> 10,< 50,"CS(=O)(=O)n1ccc(C(=O)NCC(=O)Nc2nc(-c3cccc(-c4cccc(CNC(=O)CCCCOc5cccc6c5C(=O)N(C5CCC(=O)NC5=O)C6=O)c4)c3)cs2)c1 (stereo not drawn) [Compound 57, N-(2-((4-(3′-((5-((2-(2,6-dioxopiperidin-3-yl)-1,3-dioxoisoindolin-4-yl)oxy)pentanamido)methyl)-[1,1′-biphenyl]-3-yl)thiazol-2-yl)amino)-2-oxoethyl)-1-(methylsulfonyl)-1H-pyrrole-3-carboxamide]"
> 10,C (‘C’ = Maximum degradation <50%),> 10,< 50,"CS(=O)(=O)n1ccc(C(=O)NCC(=O)Nc2nc(-c3cccc(-c4cccc(CNC(=O)CCCCCCCOc5cccc6c5C(=O)N(C5CCC(=O)NC5=O)C6=O)c4)c3)cs2)c1 (stereo not drawn) [Compound 59, N-(2-((4-(3′-((8-((2-(2,6-dioxopiperidin-3-yl)-1,3-dioxoisoindolin-4-yl)oxy)octanamido)methyl)-[1,1′-biphenyl]-3-yl)thiazol-2-yl)amino)-2-oxoethyl)-1-(methylsulfonyl)-1H-pyrrole-3-carboxamide]"
> 10,C (‘C’ = Maximum degradation <50%),> 10,< 50,CN(CC(=O)NCCCCCNc1ccc2c(c1)C(=O)N(C1CCC(=O)NC1=O)C2=O)c1cc(-c2cccc(-c3csc(NC(=O)CNC(=O)c4ccn(S(C)(=O)=O)c4)n3)c2)ccn1 (stereo not drawn) [Compound 60]

Structure (SMILES),DC50 (HiBit-BRM fusion protein) [µM],BRM HiBit Degradation Maximum measured (HiBit-BRM fusion protein),DC50 [1] [µM],Dmax [1] [%]
"CS(=O)(=O)n1ccc(C(=O)NCC(=O)Nc2nc(-c3cccc(-c4cccc(CNC(=O)CCOCCOCCOc5ccc6c(c5)C(=O)N(C5CCC(=O)NC5=O)C6=O)c4)c3)cs2)c1 (stereo not drawn) [Compound 55, N-[2-[[4-[3-[3-[[3-[2-[2-[2-(2,6-dioxo-3-piperidyl)-1,3-dioxo-isoindolin-5-yl]oxyethoxy]ethoxy]propanoylamino]-methyl]phenyl]phenyl]thiazol-2-yl]amino]-2-oxo-ethyl]-1-methylsulfonyl-pyrrole-3-carboxamide]",0.1 to 1,B (‘B’ = Maximum degradation ≥50% and ≤75%),0.1 to 1,50 to 75
"CS(=O)(=O)n1ccc(C(=O)NCC(=O)Nc2nc(-c3cccc(-c4cccc(CNC(=O)C5CC5CNC(=O)COc5ccc6c(c5)C(=O)N(C5CCC(=O)NC5=O)C6=O)c4)c3)cs2)c1 (stereo not drawn) [Compound 61, N-[2-[[4-[3-[3-[[[2-[[[2-[2-(2,6-dioxo-3-piperidyl)-1,3-dioxo-isoindolin-5-yl]oxyacetyl]amino]methyl]-cyclopropanecarbonyl]amino]methyl]-phenyl]phenyl]thiazol-2-yl]amino]-2-oxo-ethyl]-1-methylsulfonyl-pyrrole-3-carboxamide]",1 to 10,B (‘B’ = Maximum degradation ≥50% and ≤75%),0.1 to 1,50 to 75

# Reference: patent US12662479B2 (Foghorn Therapeutics Inc., priority 2020, dated 2026)
